Results on 29 compounds are retold here after US10131648B2, “Substituted benzothiophenyl derivatives as GPR40 agonists for the treatment of type II diabetes” (Janssen Pharmaceutica NV, priority 2014, dated 2018).

Molecules are shown by their SMILES. “And” between values parts separate entries of the source, which are not always exact repeats. Identical values can stand only once.

The assay addresses human GPR40 (Homo sapiens (Human), UniProt O14842). In words: GPR40 Calcium Flux Assay. Format: cell-based. The note with it: transfected HEK293 cells stably expressing human GPR40; Ca2+ mobilization; mean data; read-out: hGPR40 Ca^2+ Assay EC50. As for the experimental part:
Compounds were tested in a calcium flux assay using transfected HEK293 cells stably expressing either human GPR40 or rat GPR40. Human GPR40 expressing cells were cultured in DMEM-High Glucose media supplemented with 10% fetal bovine serum, 1×L-Glutamine, 1×Penicillin/Streptomycin and 500 μg/mL G418. Rat GPR40 expressing cells were cultured in DMEM-High Glucose media supplemented with 10% fetal bovine serum and 1 μg/mL puromycin. Cells were plated into poly-D-lysine coated 384-well plates and cultured overnight in a 37° C. humidified tissue culture incubator under 5% CO2/[…] atmosphere. On the day of the experiment, the culture media was replaced with assay buffer (HBSS, 20 mM HEPES, 0.1% BSA) and the cells incubated at 37° C. for 1 h. Calcium-sensitive fluorescent dye (Fluo 8 No-Wash Calcium Dye, ABD Bioquest) was then added and the cells incubated for another 30 min at 37° C. followed by 15 min at room temperature while protected from the light. The cell plate and a plate of diluted compounds of Formula (I) were loaded into a fluorescent plate reader that added compounds onto the cells while measuring the fluorescence intensity of each well. The plate reader recorded fluorescence intensity at 1 second intervals for 8 min and provided the data for analysis in an Excel format. EC50 values were calculated using Prism (GraphPad) software.
In general terms: Calcium flux is commonly read through the fluorescence of an indicator in the cells.

Sequence of human GPR40 (O14842 whole entry): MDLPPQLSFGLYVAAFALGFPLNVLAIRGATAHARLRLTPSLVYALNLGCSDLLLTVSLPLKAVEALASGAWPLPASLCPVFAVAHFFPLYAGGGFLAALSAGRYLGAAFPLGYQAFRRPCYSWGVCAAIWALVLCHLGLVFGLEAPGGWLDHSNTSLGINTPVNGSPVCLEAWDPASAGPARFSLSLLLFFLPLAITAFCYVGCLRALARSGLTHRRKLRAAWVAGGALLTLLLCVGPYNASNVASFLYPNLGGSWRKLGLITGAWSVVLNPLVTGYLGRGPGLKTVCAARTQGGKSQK

What is called EC50 is the concentration at which the effect is half-maximal. `CC#C[C@H](CC(=O)O)c1ccc(OCc2ccc3scc(-c4ccc(OCC5CCS(=O)(=O)CC5)cc4C)c3c2)nc1` [Cpd 74, (3S)-3-(6-((3-(4-((1,1-Dioxidotetrahydro-2H-thiopyran-4-yl)methoxy)-2-methylphenyl)benzo[b]thiophen-5-yl)methoxy)pyridin-3-yl)hex-4-ynoic acid]: the EC50 was 180 nM.

Regarding `CC#C[C@@H](CC(=O)O)c1ccc(OCc2ccc3scc(-c4ccccc4Cl)c3c2)cc1` [Cpd 19, (3S)-3-(4-((3-(2-Chlorophenyl)benzo[b]thiophen-5-yl)methoxy)phenyl)hex-4-ynoic acid], the EC50 was 8 nM.

Consider `CC#C[C@@H](CC(=O)O)c1ccc(OCc2ccc3scc(-c4ccc(OCC5(O)CCS(=O)(=O)CC5)cc4C)c3c2)cc1` [Cpd 3, (3S)-3-[4-[[3-[4-[(4-Hydroxy-1,1-dioxo-thian-4-yl)methoxy]-2-methyl-phenyl]benzo[b]thiophen-5-yl]methoxy]phenyl]hex-4-ynoic acid], for which the EC50 is 5 nM.

With `CC#C[C@@H](CC(=O)O)c1ccc(OCc2ccc3scc(-c4c(C)cccc4C)c3c2)cc1` [Cpd 10, (3S)-3-[4-[[3-(2,6-Dimethylphenyl)benzo[b]thiophen-5-yl]methoxy]phenyl]hex-4-ynoic acid], the EC50 amounted to 41 nM.

`CC#CC(CC(=O)O)c1ccc(OCc2ccc3scc(-c4ccc(OC5CCOCC5)cc4C)c3c2)nc1` (centres unmarked) [Cpd 46, 3-(6-((3-(2-Methyl-4-((tetrahydro-2H-pyran-4-yl)oxy)phenyl)benzo[b]thiophen-5-yl)methoxy)pyridin-3-yl)hex-4-ynoic acid]: the EC50 was found to be 18 nM.

On to `CC#CC(CC(=O)O)c1ccc(OCc2ccc3scc(-c4ccccc4C)c3c2)cc1` (centres unmarked) [Cpd 97, 3-(4-((3-(2-Methylphenyl)benzo[b]thiophen-5-yl)methoxy)phenyl)hex-4-ynoic acid], for which the EC50 was found to be 2 nM.

Regarding `CC#C[C@@H](CC(=O)O)c1ccc(OCc2ccc3scc(-c4ccc(OCCC(C)(C)O)cc4C)c3c2)nc1` [Cpd 71, (3R)-3-(6-((3-(4-(3-Hydroxy-3-methylbutoxy)-2-methylphenyl)benzo[b]thiophen-5-yl)methoxy)pyridin-3-yl)hex-4-ynoic acid], the 50% effective concentration (EC50) was determined as 12 nM.

In the case of `CC#C[C@@H](CC(=O)O)c1ccc(OCc2ccc3scc(-c4cc(Cl)ncc4C)c3c2)cc1` [Cpd 52, (3S)-3-(4-((3-(2-Chloro-5-methylpyridin-4-yl)benzo[b]thiophen-5-yl)methoxy)phenyl)hex-4-ynoic acid], the EC50 is 19 nM.

For the compound `CC#C[C@@H](CC(=O)O)c1ccc(OCc2ccc3scc(-c4nc(Cl)ccc4C)c3c2)cc1` [Cpd 93, (3S)-3-(4-((3-(6-Chloro-3-methylpyridin-2-yl)benzo[b]thiophen-5-yl)methoxy)phenyl)hex-4-ynoic acid], the EC50 is 15 nM.

Take `CC#C[C@@H](CC(=O)O)c1ccc(OCc2ccc3scc(-c4cc(Cl)ncc4C)c3c2)nc1` [Cpd 90, (3R)-3-(6-((3-(2-Chloro-5-methylpyridin-4-yl)benzo[b]thiophen-5-yl)methoxy)pyridin-3-yl)hex-4-ynoic acid]: the EC50 worked out at 15 nM.

Consider `CC#C[C@@H](CC(=O)O)c1ccc(COc2ccc3scc(-c4ccc(OCCC(C)(C)O)cc4C)c3c2)cc1` [Cpd 54, (3S)-3-[4-[([3-[4-(3-Hydroxy-3-methylbutoxy)-2-methylphenyl]-1-benzothiophen-5-yl]oxy)methyl]phenyl]hex-4-ynoic acid], for which the 50% effective concentration (EC50) came out at 44 nM.

Regarding `Cc1ccccc1-c1csc2ccc(COc3ccc(C4(CC(=O)O)CC(=O)C4)cc3)cc12` [Cpd 30, 2-(3-Oxo-1-(4-((3-(2-methylphenyl)benzo[b]thiophen-5-yl)methoxy)phenyl)cyclobutyl)acetic acid], the EC50 came out at 6 nM.

In the case of `CC#C[C@@H](CC(=O)O)c1ccc(OCc2ccc3scc(-c4ncc(OCCOC)cc4C)c3c2)cc1` [Cpd 48, (3S)-3-(4-((3-(5-(2-Methoxyethoxy)-3-methylpyridin-2-yl)benzo[b]thiophen-5-yl)methoxy)phenyl)hex-4-ynoic acid], the EC50 was 10 nM.

As for `CC#C[C@@H](CC(=O)O)c1ccc(OCc2ccc3scc(-c4ccc(OCC5(C)CS(=O)(=O)C5)cc4C)c3c2)cc1` [Cpd 18, (3S)-3-(4-((3-(2-Methyl-4-((3-methyl-1,1-dioxidothietan-3-yl)methoxy)phenyl)benzo[b]thiophen-5-yl)methoxy)phenyl)hex-4-ynoic acid], the concentration giving a half-maximal response (EC50) was 11 nM.

With `CC#C[C@@H](CC(=O)O)c1ccc(OCc2ccc3scc(-c4ccccc4OC)c3c2)cc1` [Cpd 79, (3S)-3-(4-((3-(2-Methoxyphenyl)benzo[b]thiophen-5-yl)methoxy)phenyl)hex-4-ynoic acid], the 50% effective concentration (EC50) stood at 28 nM.

As for `CC#C[C@@H](CC(=O)O)c1ccc(OCc2ccc3scc(-c4ccccc4C(F)(F)F)c3c2)cc1` [Cpd 21, (3S)-3-(4-((3-(2-(Trifluoromethyl)phenyl)benzo[b]thiophen-5-yl)methoxy)phenyl)hex-4-ynoic acid], the EC50 was found to be 8 nM.

On to `Cc1cc(N2CC3(CCS3(=O)=O)C2)ccc1-c1csc2ccc(COc3ccc(C4(CC(=O)O)CC(=O)C4)cc3)cc12` [Cpd 40, 2-(1-(4-((3-(4-(1,1-Dioxido-1-thia-6-azaspiro[3.3]heptan-6-yl)-2-methylphenyl)benzo[b]thiophen-5-yl)methoxy)phenyl)-3-oxocyclobutyl)acetic acid], for which the concentration giving a half-maximal response (EC50) is 15 nM.

As for `CC#C[C@@H](CC(=O)O)c1ccc(COc2ccc3scc(-c4ccc(OC5CCOC5)cc4C)c3c2)cc1` (stereo partly drawn) [Cpd 86, (3S)-3-[4-[([3-[2-Methyl-4-(tetrahydrofuran-3-yloxy)phenyl]-1-benzothiophen-5-yl]oxy)methyl]phenyl]hex-4-ynoic acid], the EC50 stood at 8 nM.

Regarding `CC#C[C@@H](CC(=O)O)c1ccc(OCc2ccc3scc(-c4ccc(OCCOC)cc4C)c3c2)nc1` [Cpd 77, (3R)-3-(6-((3-(4-(2-Methoxyethoxy)-2-methylphenyl)benzo[b]thiophen-5-yl)methoxy)pyridin-3-yl)hex-4-ynoic acid], the EC50 is 16 nM and 6 nM and 5 nM.

For the compound `CC#C[C@@H](CC(=O)O)c1ccc(OCc2ccc3scc(-c4cnccc4OC)c3c2)cc1` [Cpd 81, (3S)-3-(4-((3-(4-Methoxypyridin-3-yl)benzo[b]thiophen-5-yl)methoxy)phenyl)hex-4-ynoic acid], the EC50 turned out to be 11 nM.

On to `CC#C[C@@H](CC(=O)O)c1ccc(COc2ccc3scc(-c4ccc(OCC5(C)COC5)cc4C)c3c2)cc1` [Cpd 56, (3S)-3-(4-[[(3-[2-Methyl-4-[(3-methyloxetan-3-yl)methoxy]phenyl]-1-benzothiophen-5-yl)oxy]methyl]phenyl)hex-4-ynoic acid], for which the EC50 came out at 34 nM.

For the compound `CC#C[C@@H](CC(=O)O)c1ccc(OCc2ccc3scc(-c4ccc(OCC5CCOCC5)cc4C)c3c2)nc1` [Cpd 73, (3R)-3-(6-((3-(2-Methyl-4-((tetrahydro-2H-pyran-4-yl)methoxy)phenyl)benzo[b]thiophen-5-yl)methoxy)pyridin-3-yl)hex-4-ynoic acid], the EC50 is 13 nM.

On to `Cc1cc(OC2CCS(=O)(=O)CC2)ccc1-c1csc2ccc(COc3ccc([C@]4(CC(=O)O)C[C@@H](O)C4)cc3)cc12` [Cpd 36, 2-((1r,3r)-1-(4-((3-(4-((1,1-Dioxidotetrahydro-2H-thiopyran-4-yl)oxy)-2-methylphenyl)benzo[b]thiophen-5-yl)methoxy)phenyl)-3-hydroxycyclobutyl)acetic acid], for which the EC50 is 43 nM.

On to `CC#C[C@@H](CC(=O)O)c1ccc(OCc2ccc3scc(-c4ccc(C5CCNCC5)cc4C)c3c2)cc1` [Cpd 96, (3S)-3-(4-((3-(2-Methyl-4-(piperidin-4-yl)phenyl)benzo[b]thiophen-5-yl)methoxy)phenyl)hex-4-ynoic acid], for which the EC50 was 8 nM.

On to `CC#C[C@@H](CC(=O)O)c1ccc(COc2ccc3scc(-c4ccc(OCC(O)CO)cc4C)c3c2)cc1` (stereo partly drawn) [Cpd 55, (3S)-3-[4-[([3-[4-(2,3-Dihydroxypropoxy)-2-methylphenyl]-1-benzothiophen-5-yl]oxy)methyl]phenyl]hex-4-ynoic acid], for which the EC50 stood at 33 nM.

Regarding `CC#C[C@@H](CC(=O)O)c1ccc(OCc2ccc3scc(-c4ccc(OCCOC)nc4C)c3c2)cc1` [Cpd 50, (3S)-3-(4-((3-(6-(2-Methoxyethoxy)-2-methylpyridin-3-yl)benzo[b]thiophen-5-yl)methoxy)phenyl)hex-4-ynoic acid], the EC50 came out at 12 nM.

On to `CC#C[C@@H](CC(=O)O)c1ccc(OCc2ccc3scc(-c4cc(OCCOC)ccc4C)c3c2)nc1` [Cpd 87, (3R)-3-(6-((3-(5-(2-Methoxyethoxy)-2-methylphenyl)benzo[b]thiophen-5-yl)methoxy)pyridin-3-yl)hex-4-ynoic acid], for which the EC50 was 11 nM.

On to `CC#C[C@@H](CC(=O)O)c1ccc(OCc2ccc3scc(-c4ccc(OCC5CCS(=O)(=O)CC5)cc4C)c3c2)nc1` [Cpd 75, (3R)-3-(6-((3-(4-((1,1-Dioxidotetrahydro-2H-thiopyran-4-yl)methoxy)-2-methylphenyl)benzo[b]thiophen-5-yl)methoxy)pyridin-3-yl)hex-4-ynoic acid], for which the EC50 came out at 7 nM.

As to `CC#C[C@@H](CC(=O)O)c1ccc(OCc2ccc3scc(-c4cc(NS(C)(=O)=O)ccc4C)c3c2)cc1` [Cpd 43, (3S)-3-(4-((3-(2-Methyl-5-(methylsulfonamido)phenyl)benzo[b]thiophen-5-yl)methoxy)phenyl)hex-4-ynoic acid], the EC50 came to 31 nM.
